Drawing on publication PMC4987650, “Structural Investigation of Park’s Nucleotide on Bacterial Translocase MraY: Discovery of Unexpected MraY Inhibitors” (Scientific Reports, 2016), this text covers Relative activity for 1 compound.

One assay addresses T1, MraYBS K226A mutant (Bacillus subtilis, UniProt Q03521, K226A).
T1 construct: MBP; made in house
In words: HPLC-based MraY functional assay, mutant MraY. It is filed as biochemical. Particulars: consumption of 6 in one-hour reaction. The procedure: (§1) The purified MraY from Bacillus subtilis was prepared as described in our previous reports. For 5 and 7–10, the reaction mixture containing MraYBS (10 μg/mL), C55P (200 μM) in 40 μL reaction buffer (30 mM Tris, 10 mM MgCl2, 10 mM NaCl, 0.1 mM Tween-20, 2.5% DMSO, pH 8.0) were pre-incubated at 37 °C for 15 min. The reactions were initiated by the addition of Park’s nucleotide analogues (10 μM) and incubated at 37 °C for 1 h. The reaction mixtures were added by uridine (0.01 mg/mL) as the internal standard and heated to 100 °C to stop the transferring reaction. The samples were analyzed by RP-C18 HPLC with gradient elution of 0.25 M NH4HCO3(aq)/15% MeOH in water (100:0 to 0:100) at a flow rate of 1 mL/min over 45 min, and the peaks of substrates were monitored at UV 260 nm. […] The reaction mixtures were heated to 100 °C to stop the transferring reaction, and samples were analyzed by an anion-exchange column (SAX1, Supelco Co., 5 μm, 4.6 × 250 mm) with a linear gradient elution of NH4OAc (20 mM to 1 M in MeOH) at a flow rate of 1.0 mL/min over 30 min. The fluorescent substrates were monitored with λex 466 nm/λem 535 nm by fluorescence detector. […]

The target in a further assay is T2, MraYBS R281A mutant (Bacillus subtilis, UniProt Q03521, R281A).
T2 construct: MBP; made in house
As to the kind of experiment: HPLC-based MraY functional assay, mutant MraY. It counts as biochemical. Particulars: consumption of 6 in one-hour reaction. The procedure:
as §1

As to `CC(=O)N[C@H]1[C@@H](OP(=O)(O)OP(=O)(O)OC[C@H]2O[C@@H](n3ccc(=O)[nH]c3=O)[C@H](O)[C@@H]2O)O[C@H](CO)[C@@H](O)[C@@H]1O[C@H](C)C(=O)N[C@@H](C)C(=O)N[C@H](CCC(=O)N[C@@H](CCCCNC(=O)CCCCCNc1ccc([N+](=O)[O-])c2nonc12)C(=O)N[C@H](C)C(=O)N[C@H](C)C(=O)O)C(=O)O` [Compound 6, NBD-Park’s nucleotide], the Relative activity is on record as 100% at MraYBS K226A mutant and 81% at MraYBS R281A mutant.
